Experimental findings from patent US9399635B2, “Pyrazole derivative” (GREEN TECH CO., LTD., priority 2011, dated 2016) are described below.

One may read the melting point as the temperature of the solid-liquid transition.

SMILES strings stand for the structures.

`COc1cc(OCc2ccncc2)ccc1/C=C/c1cc(/C=C/c2cccc3cc[nH]c23)[nH]n1` [Example 51, 3-[(1E)-2-(1H-indol-7-yl)ethenyl]-5-[(1E)-2-[2-methoxy-4-(4-pyridylmethoxy)phenyl]ethenyl]-1H-pyrazole] came in with a melting point of 201 to 206 °C. As for `CS(=O)(=O)c1ccc(/C=C/c2cc(/C=C/c3ccc4cc[nH]c4c3)[nH]n2)cc1` [Example 57, 3-[(1E)-2-(1H-indol-6-yl)ethenyl]-5-[(1E)-2-[4-(methanesulfonyl)phenyl]ethenyl]-1H-pyrazole], the melting point was in the range of 260 to 268 °C. The molecule `COc1ccc(Br)c(/C=C/c2cc(/C=C/c3ccc4cc[nH]c4c3)[nH]n2)c1` [Example 67, 3-[(1E)-2-(2-bromo-5-methoxyphenyl)ethenyl]-5-[(1E)-2-(1H-indol-6-yl)ethenyl]-1H-pyrazole] yielded a melting point of 103 to 109 °C.

In turn, `C(=C\c1cc(/C=C/c2ccc3cc[nH]c3c2)[nH]n1)/c1ccc(N2CCCCC2)cc1` [Example 107, 5-[(1E)-2-(1H-indol-6-yl)ethenyl]-3-[(1E)-2-[4-(1-piperidinyl)phenyl]ethenyl]-1H-pyrazole] showed a melting point of 189 to 191 °C. Next, `COc1cc(OC(c2ccccc2)c2ccccc2)ccc1/C=C/c1cc(/C=C/c2ccc3cc[nH]c3c2)[nH]n1` [Example 64, 3-[(1E)-2-[4-(diphenylmethoxy)-2-methoxyphenyl]ethenyl]-5-[(1E)-2-(1H-indol-6-yl)ethenyl]-1H-pyrazole]: 114 to 119 °C. `CN1CCN(c2ccc(/C=C/c3cc(/C=C/c4ccc5cc[nH]c5c4)[nH]n3)c(Br)c2)CC1` [Example 62, 3-[(1E)-2-[2-bromo-4-(4-methylpiperazin-1-yl)phenyl]ethenyl]-5-[(1E)-2-(1H-indol-6-yl)ethenyl]-1H-pyrazole] had a melting point of 120 to 124 °C.

Turning to `COc1cc(OCc2ccccn2)ccc1/C=C/c1cc(/C=C/c2ccc3nccnc3c2)[nH]n1` [Example 32, 3-[(1E)-2-[2-methoxy-4-(2-pyridylmethoxy)phenyl]ethenyl]-5-[(1E)-2-(quinoxalin-6-yl)ethenyl]-1H-pyrazole], the melting point was in the range of 205 to 213 °C. Next, `C(=C\c1cc(/C=C/c2ccc3cc[nH]c3c2)[nH]n1)/c1ccc(N2CCOCC2)cc1` [Example 103, 5-[(1E)-2-(1H-indol-6-yl)ethenyl]-3-[(1E)-2-(4-morpholinophenyl)ethenyl]-1H-pyrazole]: 236 to 238 °C; `COc1cc(/C=C/c2cc(/C=C/c3c[nH]c4ccccc34)[nH]n2)ccc1OCc1ccccn1` [Example 11, 3-[(1E)-2-(1H-indol-3-yl)ethenyl]-5-[(1E)-2-[3-methoxy-4-(2-pyridylmethoxy)phenyl]ethenyl]-1H-pyrazole]: 120 to 130 °C; `COc1cc(OCc2ccncc2)ccc1/C=C/c1cc(/C=C/c2ccc3cc[nH]c3c2)[nH]n1` [Example 47, 3-[(1E)-2-(1H-indol-6-yl)ethenyl]-5-[(1E)-2-[2-methoxy-4-(4-pyridylmethoxy)phenyl]ethenyl]-1H-pyrazole]: 103 to 118 °C. Next, `COc1cc(OCc2ccccn2)ccc1/C=C/c1cc(/C=C/c2c[nH]c3ccccc23)[nH]n1` [Example 38, 3-[(1E)-2-(1H-indol-3-yl)ethenyl]-5-[(1E)-2-[2-methoxy-4-(2-pyridylmethoxy)phenyl]ethenyl]-1H-pyrazole]: 112 to 116 °C; `Brc1cc(N2CCOCC2)ccc1/C=C/c1cc(/C=C/c2ccc3cc[nH]c3c2)[nH]n1` [Example 71, 3-[(1E)-2-[2-bromo-4-(morpholin-4-yl)phenyl]ethenyl]-5-[(1E)-2-(1H-indol-6-yl)ethenyl]-1H-pyrazole]: 143 to 148 °C; `CC(=O)Nc1ccc(/C=C/c2cc(/C=C/c3ccc4cc[nH]c4c3)[nH]n2)cc1` [Example 55, 3-[(1E)-2-[4-(acetylamino)phenyl]ethenyl]-5-[(1E)-2-(1H-indol-6-yl)ethenyl]-1H-pyrazole]: more than 300 °C. Next, `COc1cc(OCc2ccncc2)ccc1/C=C/c1cc(/C=C/c2cccc3[nH]ccc23)[nH]n1` [Example 49, 3-[(1E)-2-(1H-indol-4-yl)ethenyl]-5-[(1E)-2-[2-methoxy-4-(4-pyridylmethoxy)phenyl]ethenyl]-1H-pyrazole]: 207 to 215 °C.

In turn, `COc1cc(OCc2ccccn2)ccc1/C=C/c1cc(/C=C/c2c[nH]c3ccc(F)cc23)[nH]n1` [Example 99, 3-[(1E)-2-(5-fluoro-1H-indol-3-yl)ethenyl]-5-[(1E)-2-[2-methoxy-4-(2-pyridylmethoxy)phenyl]ethenyl]-1H-pyrazole] displayed a melting point of 209 to 213 °C. In turn, `COc1cc(OCc2cccnc2)ccc1/C=C/c1cc(/C=C/c2cc3ccccc3[nH]2)[nH]n1` [Example 52, 3-[(1E)-2-(1H-indol-2-yl)ethenyl]-5-[(1E)-2-[2-methoxy-4-(3-pyridylmethoxy)phenyl]ethenyl]-1H-pyrazole] registered a melting point of 126 to 138 °C.

As to `COc1cc(/C=C/c2cc(/C=C/c3ccc4cc[nH]c4c3)[nH]n2)ccc1OCc1ccccn1` [Example 17, 3-[(1E)-2-(1H-indol-6-yl)ethenyl]-5-[(1E)-2-[3-methoxy-4-(2-pyridylmethoxy)phenyl]ethenyl]-1H-pyrazole], the melting point fell in the range of 236 to 243 °C. Molecule `COc1cc(OCc2cccnc2)ccc1/C=C/c1cc(/C=C/c2cccc3cc[nH]c23)[nH]n1` [Example 50, 3-[(1E)-2-(1H-indol-7-yl)ethenyl]-5-[(1E)-2-[2-methoxy-4-(3-pyridylmethoxy)phenyl]ethenyl]-1H-pyrazole] returned a melting point of 122 to 129 °C. As for `C(=C\c1cc(/C=C/c2ccc3cc[nH]c3c2)[nH]n1)/c1ccc(OCc2ccccn2)cc1` [Example 16, 3-[(1E)-2-(1H-indol-6-yl)ethenyl]-5-[(1E)-2-[4-(2-pyridylmethoxy)phenyl]ethenyl]-1H-pyrazole], the figure is 211 to 214 °C; as for `COc1cc(OCc2ccccn2)ccc1/C=C/c1cc(/C=C/c2c[nH]c3ncccc23)[nH]n1` [Example 75, 3-[(1E)-2-(7-aza-1H-indol-3-yl)ethenyl]-5-[(1E)-2-[2-methoxy-4-(2-pyridylmethoxy)phenyl]ethenyl]-1H-pyrazole], 219 to 223 °C. `COc1cc(OCc2cccnc2)ccc1/C=C/c1cc(/C=C/c2cccc3[nH]ccc23)[nH]n1` [Example 48, 3-[(1E)-2-(1H-indol-4-yl)ethenyl]-5-[(1E)-2-[2-methoxy-4-(3-pyridylmethoxy)phenyl]ethenyl]-1H-pyrazole] displayed a melting point of 109 to 114 °C. As for `COc1cc(OCc2ccccn2)ccc1/C=C/c1cc(/C=C/c2ccc3ccn(S(C)(=O)=O)c3c2)[nH]n1` [Example 74, 3-[(1E)-2-(1-methanesulfonyl-1H-indol-6-yl)ethenyl]-5-[(1E)-2-[2-methoxy-4-(2-pyridylmethoxy)phenyl]ethenyl]-1H-pyrazole], the figure is 212 to 214 °C. As for `COc1ccc(/C=C/c2cc(/C=C/c3ccc4[nH]ccc4c3)[nH]n2)cc1OCc1ccccn1` [Example 6, 3-[(1E)-2-(1H-indol-5-yl)ethenyl]-5-[(1E)-2-[4-methoxy-3-(2-pyridylmethoxy)phenyl]ethenyl]-1H-pyrazole], the figure is 109 to 118 °C; as for `C(=C\c1cc(/C=C/c2ccc3cc[nH]c3c2)[nH]n1)/c1cccc(OCc2ccccn2)c1` [Example 19, 3-[(1E)-2-(1H-indol-6-yl)ethenyl]-5-[(1E)-2-[3-(2-pyridylmethoxy)phenyl]ethenyl]-1H-pyrazole], 193 to 195 °C; as for `COc1cc(OCCN2CCN(C)CC2)ccc1/C=C/c1cc(/C=C/c2ccc3cc[nH]c3c2)[nH]n1` [Example 28, 3-[(1E)-2-(1H-indol-6-yl)ethenyl]-5-[(1E)-2-[2-methoxy-4-[2-(4-methylpiperazino)ethoxy]phenyl]ethenyl]-1H-pyrazole], 134 to 142 °C. `COc1cc(OCc2ccccn2)ccc1/C=C/c1cc(/C=C/c2ccc3ccn(Cc4ccccc4)c3c2)[nH]n1` [Example 70, 3-[(1E)-2-(1-benzyl-1H-indol-6-yl)ethenyl]-5-[(1E)-2-[2-methoxy-4-(2-pyridylmethoxy)phenyl]ethenyl]-1H-pyrazole]: the melting point was in the range of 89 to 93 °C.

On to `C(=C\c1cc(/C=C/c2ccc3cc[nH]c3c2)[nH]n1)/c1ccc(Oc2ccccc2)cc1` [Example 56, 3-[(1E)-2-(1H-indol-6-yl)ethenyl]-5-[(1E)-2-(4-phenoxyphenyl)ethenyl]-1H-pyrazole], for which the melting point lay within 175 to 182 °C. For `COc1cc(/C=C/c2cc(/C=C/c3ccc4[nH]ccc4c3)[nH]n2)ccc1OCc1ccccn1` [Example 5, 3-[(1E)-2-(1H-indol-5-yl)ethenyl]-5-[(1E)-2-[3-methoxy-4-(2-pyridylmethoxy)phenyl]ethenyl]-1H-pyrazole], the melting point was in the range of 96 to 101 °C. As for `CCN(CC)c1ccc(/C=C/c2cc(/C=C/c3ccc4cc[nH]c4c3)[nH]n2)c(OCCN2CCCCC2)c1` [Example 97, 3-[(1E)-2-[4-diethylamino-2-[2-(1-piperidyl)ethoxy]phenyl]ethenyl]-5-[(1E)-2-(1H-indol-6-yl)ethenyl]-1H-pyrazole], the figure is 102 to 104 °C; as for `COCCOc1ccc(/C=C/c2cc(/C=C/c3ccc4cc[nH]c4c3)[nH]n2)c(OC)c1` [Example 66, 3-[(1E)-2-(1H-indol-6-yl)ethenyl]-5-[(1E)-2-[2-methoxy-4-(2-methoxyethoxy)phenyl]ethenyl]-1H-pyrazole], 90 to 96 °C.

With `C(=C\c1cc(/C=C/c2c[nH]c3ccccc23)[nH]n1)/c1ccc(OCc2ccccn2)cc1` [Example 10, 3-[(1E)-2-(1H-indol-3-yl)ethenyl]-5-[(1E)-2-[4-(2-pyridylmethoxy)phenyl]ethenyl]-1H-pyrazole], the melting point lay within 196 to 199 °C. The molecule `COc1cc(OCc2ccccn2)ccc1/C=C/c1cc(/C=C/c2cccc3cc[nH]c23)[nH]n1` [Example 41, 3-[(1E)-2-(1H-indol-7-yl)ethenyl]-5-[(1E)-2-[2-methoxy-4-(2-pyridylmethoxy)phenyl]ethenyl]-1H-pyrazole] returned a melting point of 99 to 110 °C.
